Earlier results, collected in publication PMC6719874 (PLoS ONE, 2019).
“Also recorded” adds a separate entry of the source.

Assays:
[1] = test system: tumors / human xenografts
[2] = test system: S620T hERG
[3] = test system: L-type calcium channels; set-up: method as in PMID 17125805, PMID 19887376
[4] = target: F656A hERG (Homo sapiens, UniProt Q12809, F656A); settings: F656A ref 87
[5] = target: T1, Y652A hERG (Homo sapiens, UniProt Q12809, Y652A); settings: Y652A ref 87
T1 construct: host or cells: Xenopus laevis oocytes injected with cRNA
T1 sequence (Q12809 whole entry Y652A): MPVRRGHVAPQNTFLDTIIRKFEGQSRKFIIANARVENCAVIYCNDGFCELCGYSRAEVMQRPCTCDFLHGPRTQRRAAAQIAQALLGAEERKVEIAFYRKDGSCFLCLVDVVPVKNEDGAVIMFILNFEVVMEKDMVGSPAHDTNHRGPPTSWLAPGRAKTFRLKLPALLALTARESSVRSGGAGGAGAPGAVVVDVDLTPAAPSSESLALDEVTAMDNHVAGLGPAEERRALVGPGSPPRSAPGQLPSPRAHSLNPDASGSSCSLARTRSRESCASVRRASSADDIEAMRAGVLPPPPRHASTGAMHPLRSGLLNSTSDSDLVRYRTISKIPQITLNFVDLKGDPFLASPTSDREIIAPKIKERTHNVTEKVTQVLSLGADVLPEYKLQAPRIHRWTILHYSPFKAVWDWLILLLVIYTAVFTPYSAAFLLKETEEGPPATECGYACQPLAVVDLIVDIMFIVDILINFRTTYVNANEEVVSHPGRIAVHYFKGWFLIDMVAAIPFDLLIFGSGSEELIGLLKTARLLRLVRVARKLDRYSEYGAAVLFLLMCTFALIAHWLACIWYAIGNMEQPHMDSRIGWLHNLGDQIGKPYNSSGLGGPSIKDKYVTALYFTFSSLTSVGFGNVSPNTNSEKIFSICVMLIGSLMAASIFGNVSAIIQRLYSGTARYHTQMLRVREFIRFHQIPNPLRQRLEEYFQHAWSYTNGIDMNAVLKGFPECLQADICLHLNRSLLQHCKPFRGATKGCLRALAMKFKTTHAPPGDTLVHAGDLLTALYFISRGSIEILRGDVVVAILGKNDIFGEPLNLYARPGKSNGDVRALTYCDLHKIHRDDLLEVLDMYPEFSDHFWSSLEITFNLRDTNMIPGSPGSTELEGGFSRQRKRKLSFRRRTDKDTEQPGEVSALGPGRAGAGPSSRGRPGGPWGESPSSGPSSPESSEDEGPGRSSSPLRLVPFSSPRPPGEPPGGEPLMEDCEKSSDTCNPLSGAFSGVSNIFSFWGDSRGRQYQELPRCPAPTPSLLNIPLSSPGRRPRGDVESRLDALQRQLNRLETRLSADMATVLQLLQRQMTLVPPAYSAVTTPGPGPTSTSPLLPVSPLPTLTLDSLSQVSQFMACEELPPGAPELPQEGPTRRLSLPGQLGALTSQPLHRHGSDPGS

F656A hERG, sequence (Q12809 whole entry F656A): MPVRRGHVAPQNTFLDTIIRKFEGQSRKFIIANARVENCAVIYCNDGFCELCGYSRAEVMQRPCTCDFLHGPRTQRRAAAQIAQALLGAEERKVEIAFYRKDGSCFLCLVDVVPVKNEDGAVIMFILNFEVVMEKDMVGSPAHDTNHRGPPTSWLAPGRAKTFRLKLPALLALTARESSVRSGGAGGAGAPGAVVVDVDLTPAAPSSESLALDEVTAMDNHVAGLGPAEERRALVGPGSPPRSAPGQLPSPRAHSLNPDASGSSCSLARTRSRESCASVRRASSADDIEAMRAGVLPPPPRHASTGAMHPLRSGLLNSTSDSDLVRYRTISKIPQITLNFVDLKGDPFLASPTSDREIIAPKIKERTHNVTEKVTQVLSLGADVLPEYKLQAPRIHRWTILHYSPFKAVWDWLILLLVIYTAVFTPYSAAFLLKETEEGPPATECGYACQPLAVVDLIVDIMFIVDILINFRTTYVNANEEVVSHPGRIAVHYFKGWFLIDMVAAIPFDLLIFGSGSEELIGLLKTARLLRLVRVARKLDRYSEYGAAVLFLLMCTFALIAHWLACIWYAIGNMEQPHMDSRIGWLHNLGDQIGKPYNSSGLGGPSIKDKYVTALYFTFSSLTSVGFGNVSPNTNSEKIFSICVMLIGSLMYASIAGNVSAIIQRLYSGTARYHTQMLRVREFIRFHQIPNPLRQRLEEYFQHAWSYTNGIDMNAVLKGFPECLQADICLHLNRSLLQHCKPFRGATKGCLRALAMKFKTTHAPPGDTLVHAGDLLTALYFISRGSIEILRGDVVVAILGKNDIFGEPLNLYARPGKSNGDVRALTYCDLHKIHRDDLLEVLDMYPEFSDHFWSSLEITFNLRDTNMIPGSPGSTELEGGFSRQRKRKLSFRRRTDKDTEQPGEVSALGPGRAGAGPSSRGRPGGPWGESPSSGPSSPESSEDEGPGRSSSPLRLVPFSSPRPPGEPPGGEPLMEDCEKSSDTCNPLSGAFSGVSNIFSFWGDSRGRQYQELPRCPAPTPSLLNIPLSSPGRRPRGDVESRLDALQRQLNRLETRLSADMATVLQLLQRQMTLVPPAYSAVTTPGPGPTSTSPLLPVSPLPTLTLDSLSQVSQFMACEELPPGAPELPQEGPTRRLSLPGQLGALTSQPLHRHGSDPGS

| SMILES | QT prolongation or other cardiac side effects (clinical trial, range of concentrations ref 18) | tolerability (phase II clinical trials) | tumor suppression ([1]; mice ref 75-77) | growth delay of human xenografts ([1]; mice ref 78) | inhibition of S620T compared to WT [2] | potency of inhibition [3] | fold change in IC50 in relation to WT [4] | fold change in IC50 in relation to WT [5] |
| --- | --- | --- | --- | --- | --- | --- | --- | --- |
| CCC(CO)Nc1nc(NCc2ccccc2)c2ncn(C(C)C)c2n1 (centres unmarked) [R-roscovitine, 2-(1-ethyl-2-hydroxyethylamino)-6-benzylamino-9-isopropylpurine] | did not find QT prolongation or other cardiac side effects | well tolerated | significant tumor suppression | significant growth delay | similar; also recorded: not different from WT inhibition | ~ 25 μM |  |  |
| Cc1cccc(C)c1OCC(C)N (centres unmarked) [mexiletine] |  |  |  |  |  |  | ~ 28 fold | ~ 12 fold |
